Measurements taken from US12605350B2, “Composition for preventing, ameliorating, or treating disease caused by nitration of tyrosine in proteins comprising tyrosine as effective component” (INDUSTRY-ACADEMIC COOPERATION FOUNDATION GYEONGSANG …, priority 2020, dated 2026).
Entries after “also recorded” stand apart in the source; their conditions may differ.

Target: T1, glutamine synthetase (GS) (Mus musculus, UniProt P15105)
T1 construct: PFC sample was weighed first, and, after lysis of the tissues by using Bullet homogenizer, subjected to centrifuge; from tissue; host or cells: mouse prefrontal cortex (PFC) lysate
T1 sequence (P15105 2-373 limits assumed): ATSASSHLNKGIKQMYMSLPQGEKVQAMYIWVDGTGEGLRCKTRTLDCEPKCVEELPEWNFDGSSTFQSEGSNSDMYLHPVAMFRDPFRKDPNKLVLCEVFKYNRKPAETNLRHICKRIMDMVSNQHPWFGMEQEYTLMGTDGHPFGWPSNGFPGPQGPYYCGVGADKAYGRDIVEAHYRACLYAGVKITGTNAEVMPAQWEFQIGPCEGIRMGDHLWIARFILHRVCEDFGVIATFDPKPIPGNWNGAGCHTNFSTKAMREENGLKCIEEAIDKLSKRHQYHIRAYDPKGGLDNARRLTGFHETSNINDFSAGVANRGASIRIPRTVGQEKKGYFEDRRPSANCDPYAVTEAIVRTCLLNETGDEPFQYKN
Experiment: in vitro GS activity of PFC tissue lysate treated with nitrogen peroxide (PN) and tyrosine
Type: biochemical
Details: PFC tissue lysate (10 μg), 0.0031 to 0.45 mg/ml tyrosine, nitrogen peroxide (PN) 10 times the tissue lysate
Protocol: Each of the blood and PFC sample was obtained from a mouse anesthetized with CO2 gas. Specifically, mouse blood was collected between 9 AM and 11 AM and stored in a K3EDTA-coated vacuum container. Plasma was obtained by centrifuge for 10 minutes at 4° C., 500×g. PFC sample was weighed first, and, after lysis of the tissues by using Bullet homogenizer, subjected to centrifuge for 20 minutes at 4° C., 12,000 rpm. Thus-obtained plasma and tissue lysate were kept at −80° C. until use.
10 μg of the lysate were admixed with […] of GS assay buffer solution (50 mM imidazole-HCl, pH 6.8, 50 mM L-glutamine, 25 mM hydroxylamine, 25 mM sodium arsenate, 2 mM MnCl2 and 0.16 mM ADP), followed by incubation for 1 hour at 37° C.
After the mixing, the reaction was terminated by adding 50 μl of stop buffer solution (90 mM FeCl3, 1.8 N HCl and 1.45% trichloroacetic acid), and then γ-glutamylhydroxamate synthesized from a reaction between glutamine and hydroxylamine as catalyzed by GS was measured at 560 nm using a microplate reader.
Moreover, after PFC (prefrontal cortex) tissue lysate (10 μg) was added and mixed with 0.0031 to 0.45 mg/ml tyrosine, incubated on ice for 10 minutes, and added with nitrogen peroxide (PN), in an amount that is 10 times the tissue lysate, followed by incubation for 10 minutes, in vitro GS activity was examined.

N[C@@H](Cc1ccc(O)cc1)C(=O)O [tyrosine]
in vitro GS activity: statistically significant increase in GS activity; also recorded: higher GS activity is obtained in accordance with an increase in the tyrosine concentration
